According to PubChem BioAssay (NCI):
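Method: 48-hour compound exposure of cells in 96-well plates, five concentrations, linear interpolation of endpoints. The concentration for full growth arrest is given as TGI.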

Key:
Assay in all cases: DTP human tumour cell line panel, 48 h
DLD-1 colon = test system: DLD-1 colon
HOP-92 NSCLC = test system: HOP-92 NSCLC
KM20L2 colon = test system: KM20L2 colon
XF 498 CNS = test system: XF 498 CNS
SN12C renal = test system: SN12C renal
UACC-257 melanoma = test system: UACC-257 melanoma
A549 NSCLC = test system: A549 NSCLC
SNB-75 CNS = test system: SNB-75 CNS
DMS 114 small cell lung = test system: DMS 114 small cell lung
CAKI-1 renal = test system: CAKI-1 renal
RXF 393 renal = test system: RXF 393 renal
MALME-3M melanoma = test system: MALME-3M melanoma
OVCAR-8 ovarian = test system: OVCAR-8 ovarian
SF-295 CNS = test system: SF-295 CNS
OVCAR-3 ovarian = test system: OVCAR-3 ovarian
786-0 renal = test system: 786-0 renal
OVCAR-4 ovarian = test system: OVCAR-4 ovarian
IGROV1 ovarian = test system: IGROV1 ovarian
UO-31 renal = test system: UO-31 renal
EKVX NSCLC = test system: EKVX NSCLC
HL-60(TB) leukemia = test system: HL-60(TB) leukemia
UACC-62 melanoma = test system: UACC-62 melanoma
K-562 leukemia = test system: K-562 leukemia
HOP-18 NSCLC = test system: HOP-18 NSCLC
SK-OV-3 ovarian = test system: SK-OV-3 ovarian
ACHN renal = test system: ACHN renal
TK-10 renal = test system: TK-10 renal
LOX IMVI melanoma = test system: LOX IMVI melanoma
HCT-15 colon = test system: HCT-15 colon
HOP-62 NSCLC = test system: HOP-62 NSCLC
SK-MEL-2 melanoma = test system: SK-MEL-2 melanoma
LXFL 529 NSCLC = test system: LXFL 529 NSCLC
SK-MEL-5 melanoma = test system: SK-MEL-5 melanoma
OVCAR-5 ovarian = test system: OVCAR-5 ovarian
HT29 colon = test system: HT29 colon
KM12 colon = test system: KM12 colon
SNB-19 CNS = test system: SNB-19 CNS
NCI-H460 lung = test system: NCI-H460 lung
M14 melanoma = test system: M14 melanoma
HCC-2998 colon = test system: HCC-2998 colon
SF-268 CNS = test system: SF-268 CNS
NCI-H23 lung = test system: NCI-H23 lung
A498 renal = test system: A498 renal
SF-539 CNS = test system: SF-539 CNS
MOLT-4 leukemia = test system: MOLT-4 leukemia
CCRF-CEM leukemia = test system: CCRF-CEM leukemia
U251 CNS = test system: U251 CNS
HCT-116 colon = test system: HCT-116 colon
RPMI-8226 leukemia = test system: RPMI-8226 leukemia
SW-620 colon = test system: SW-620 colon
COLO 205 colon = test system: COLO 205 colon
M19-MEL melanoma = test system: M19-MEL melanoma
DMS 273 small cell lung = test system: DMS 273 small cell lung

Measured: TGI

O=S(=O)(O)C(F)(F)C(F)(F)C(F)(F)C(F)(F)F
> 100 µM: DLD-1 colon | HOP-92 NSCLC | KM20L2 colon | XF 498 CNS | SN12C renal | UACC-257 melanoma | A549 NSCLC | SNB-75 CNS | DMS 114 small cell lung | CAKI-1 renal | RXF 393 renal | MALME-3M melanoma | OVCAR-8 ovarian | SF-295 CNS | OVCAR-3 ovarian | 786-0 renal | OVCAR-4 ovarian | IGROV1 ovarian | UO-31 renal | EKVX NSCLC | HL-60(TB) leukemia | UACC-62 melanoma | K-562 leukemia | HOP-18 NSCLC | SK-OV-3 ovarian | ACHN renal | TK-10 renal | LOX IMVI melanoma | HCT-15 colon | HOP-62 NSCLC | SK-MEL-2 melanoma | LXFL 529 NSCLC | SK-MEL-5 melanoma | OVCAR-5 ovarian | HT29 colon | KM12 colon | SNB-19 CNS | NCI-H460 lung | M14 melanoma | HCC-2998 colon | SF-268 CNS | NCI-H23 lung | A498 renal | SF-539 CNS | MOLT-4 leukemia | CCRF-CEM leukemia | U251 CNS | HCT-116 colon | RPMI-8226 leukemia | SW-620 colon | COLO 205 colon | M19-MEL melanoma | DMS 273 small cell lung
